Experimental data taken from patent publication US10519177B2, “Heterocyclic compounds and uses thereof” (Plexxikon Inc., priority 2013, dated 2019).

How the values were obtained:
[1] = molecular target: BRD4-BD12 (1-477) (Homo sapiens (Human), UniProt O60885); assay: Alphascreen binding assay BRD4-BD12; conditions: BRD4(1 2) H4; read-out: Biochemical activity (IC50 μM) BRD4(1 2) H4
Outline: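 First, compound was preincubated 1 h at room temperature with the His-tagged BRD4 protein (BD1 44-164 or tandem BD12 1-477) and acetylated H4 peptide. Next, donor and acceptor beads were added at 7.5 μg/ml final. After 30 min, AlphaScreen emission was recorded.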

[2] = tested on: MV-4-11 cells; assay: Oncology cell growth assay MV-4-11 (CellTiter Glo); assay type: cell-based; conditions: Homo sapiens, MV4-11, 72 h; MV-4-11, 3d growth; read-out: Cell activity (IC50 μM) MV-4-11 3d-Growth
Outline: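 MV-4-11 AML cells (MLL-AF4), 3000 per well, exposed to 8-point 1:3 compound titration from 10 μM top concentration (0.2% DMSO) for 72 h. Viability by CellTiter Glo luminescence, normalized to DMSO controls; pIC50 from four-parameter curve fit.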

SMILES | IC50 [1] [µM] | IC50 [2] [µM]
Cc1noc(C)c1-c1cnc2c(-c3ccc(C(=O)O)cc3)cn(C(c3ccccn3)C3CCC3)c2c1 (centres unmarked) [P-1012, 4-[1-[cyclobutyl(2-pyridyl)methyl]-6-(3,5-dimethylisoxazol-4-yl)pyrrolo[3,2-b]pyridin-3-yl]benzoic acid] | < 1 | < 1
COC(=O)Cc1ccc(-c2cn(C(c3ccccn3)C3CCC3)c3cc(-c4c(C)noc4C)cnc23)cc1 (centres unmarked) [P-1013, methyl 2-[4-[1-[cyclobutyl(2-pyridyl)methyl]-6-(3,5-dimethylisoxazol-4-yl)pyrrolo[3,2-b]pyridin-3-yl]phenyl]acetate] | < 1 | < 1
Cc1noc(C)c1-c1cnc2c(-c3ccc(C(=O)O)cc3)cn(C(c3ccccn3)C3CCCCC3)c2c1 (centres unmarked) [P-1014, 4-[1-[cyclohexyl(2-pyridyl)methyl]-6-(3,5-dimethylisoxazol-4-yl)pyrrolo[3,2-b]pyridin-3-yl]benzoic acid] | < 1 | < 1
Cc1noc(C)c1-c1cnc2c(-c3ccc(CC(=O)O)cc3)cn(C(c3ccccn3)C3CCC3)c2c1 (centres unmarked) [P-1015, 2-[4-[1-[cyclobutyl(2-pyridyl)methyl]-6-(3,5-dimethylisoxazol-4-yl)pyrrolo[3,2-b]pyridin-3-yl]phenyl]acetic acid] | < 1 | < 1
COC(=O)c1ccc(-c2cn(C(c3ccccn3)C3CCCCC3)c3cc(-c4c(C)noc4C)cnc23)cc1 (centres unmarked) [P-1016, methyl 4-[1-[cyclohexyl(2-pyridyl)methyl]-6-(3,5-dimethylisoxazol-4-yl)pyrrolo[3,2-b]pyridin-3-yl]benzoate] | < 1 | < 1
COC(=O)Cc1ccc(-c2cn(C(c3ccccn3)C3CCCCC3)c3cc(-c4c(C)noc4C)cnc23)cc1 (centres unmarked) [P-1017, methyl 2-[4-[1-[cyclohexyl(2-pyridyl)methyl]-6-(3,5-dimethylisoxazol-4-yl)pyrrolo[3,2-b]pyridin-3-yl]phenyl]acetate] | < 1 | < 1
Cc1noc(C)c1-c1cnc2c(-c3ccc(CC(=O)O)cc3)cn(C(c3ccccn3)C3CCCCC3)c2c1 (centres unmarked) [P-1018, 2-[4-[1-[cyclohexyl(2-pyridyl)methyl]-6-(3,5-dimethylisoxazol-4-yl)pyrrolo[3,2-b]pyridin-3-yl]phenyl]acetic acid] | < 1 | < 1
Cc1ccc(-c2cn([C@@H](C)c3ccccn3)c3cc(-c4c(C)noc4C)cnc23)cn1 [P-1019, 3,5-dimethyl-4-[3-(6-methyl-3-pyridyl)-1-[(1S)-1-(2-pyridyl)ethyl]pyrrolo[3,2-b]pyridin-6-yl]isoxazole] | < 1 | < 1
Cc1noc(C)c1-c1cnc2c(-c3ccc(C(C)(C)C(=O)O)cc3)cn([C@@H](C)c3ccccn3)c2c1 [P-1021, 2-[4-[6-(3,5-dimethylisoxazol-4-yl)-1-[(1S)-1-(2-pyridyl)ethyl]pyrrolo[3,2-b]pyridin-3-yl]phenyl]-2-methyl-propanoic acid] | < 1 | < 1
CC[C@@H](c1ccccn1)n1cc(-c2ccc(C(=O)O)c(F)c2)c2ncc(-c3c(C)noc3C)cc21 [P-1022, 4-[6-(3,5-dimethylisoxazol-4-yl)-1-[(1S)-1-(2-pyridyl)propyl]pyrrolo[3,2-b]pyridin-3-yl]-2-fluoro-benzoic acid] | < 1 | < 1
CC[C@@H](c1ccccn1)n1cc(-c2ccc(F)c(C(=O)O)c2)c2ncc(-c3c(C)noc3C)cc21 [P-1023, 5-[6-(3,5-dimethylisoxazol-4-yl)-1-[(1S)-1-(2-pyridyl)propyl]pyrrolo[3,2-b]pyridin-3-yl]-2-fluoro-benzoic acid] | < 1 | < 1
CC[C@@H](c1ccccn1)n1cc(-c2ccc(C)c(C(=O)O)c2)c2ncc(-c3c(C)noc3C)cc21 [P-1024, 5-[6-(3,5-dimethylisoxazol-4-yl)-1-[(1S)-1-(2-pyridyl)propyl]pyrrolo[3,2-b]pyridin-3-yl]-2-methyl-benzoic acid] | < 1 | < 1
CC[C@@H](c1ccccn1)n1cc(-c2ccc(C(=O)O)cc2F)c2ncc(-c3c(C)noc3C)cc21 [P-1025, 4-[6-(3,5-dimethylisoxazol-4-yl)-1-[(1S)-1-(2-pyridyl)propyl]pyrrolo[3,2-b]pyridin-3-yl]-3-fluoro-benzoic acid] | < 1 | < 1
CC[C@@H](c1ccccn1)n1cc(-c2ccc(C(=O)O)c(C)c2)c2ncc(-c3c(C)noc3C)cc21 [P-1026, 4-[6-(3,5-dimethylisoxazol-4-yl)-1-[(1S)-1-(2-pyridyl)propyl]pyrrolo[3,2-b]pyridin-3-yl]-2-methyl-benzoic acid] | < 1 | < 1
CC[C@@H](c1ccccn1)n1cc(-c2ccc(C(=O)O)c(Cl)c2)c2ncc(-c3c(C)noc3C)cc21 [P-1028, 2-chloro-4-[6-(3,5-dimethylisoxazol-4-yl)-1-[(1S)-1-(2-pyridyl)propyl]pyrrolo[3,2-b]pyridin-3-yl]benzoic acid] | < 1 | < 1
CC[C@@H](c1ccccn1)n1cc(-c2ccc(C(=O)O)cc2Cl)c2ncc(-c3c(C)noc3C)cc21 [P-1029, 3-chloro-4-[6-(3,5-dimethylisoxazol-4-yl)-1-[(1S)-1-(2-pyridyl)propyl]pyrrolo[3,2-b]pyridin-3-yl]benzoic acid] | < 1 | < 1
Cc1noc(C)c1-c1ccc2c(-c3ccc(C(=O)O)cc3)cn([C@@H](C)c3ccccn3)c2c1 [P-1030, 4-[6-(3,5-dimethylisoxazol-4-yl)-1-[(1S)-1-(2-pyridyl)ethyl]indol-3-yl]benzoic acid] | < 1 | < 1
Cc1noc(C)c1-c1ccc2c(-c3ccc(CC(=O)O)cc3)cn([C@@H](C)c3ccccn3)c2c1 [P-1031, 2-[4-[6-(3,5-dimethylisoxazol-4-yl)-1-[(1S)-1-(2-pyridyl)ethyl]indol-3-yl]phenyl]acetic acid] | < 1 | < 1
Cc1noc(C)c1-c1cnc2c(-c3ccc(C4(C(=O)O)CC4)cc3)cn([C@H](c3ccccn3)C3CC3)c2c1 [P-1032, 1-[4-[1-[(S)-cyclopropyl(2-pyridyl)methyl]-6-(3,5-dimethylisoxazol-4-yl)pyrrolo[3,2-b]pyridin-3-yl]phenyl]cyclopropanecarboxylic acid] | < 1 | < 1
Cc1noc(C)c1-c1cnc2c(I)cn(C(c3ccccn3)C3CCOCC3)c2c1 (centres unmarked) [P-1034, 4-[3-iodo-1-[2-pyridyl(tetrahydropyran-4-yl)methyl]pyrrolo[3,2-b]pyridin-6-yl]-3,5-dimethyl-isoxazole] | < 1 | < 1
COC(=O)c1ccc(-c2cn(C(c3ccccn3)C3CCOCC3)c3cc(-c4c(C)noc4C)cnc23)cc1 (centres unmarked) [P-1035, methyl 4-[6-(3,5-dimethylisoxazol-4-yl)-1-[2-pyridyl(tetrahydropyran-4-yl)methyl]pyrrolo[3,2-b]pyridin-3-yl]benzoate] | < 1 | < 1
Cc1noc(C)c1-c1cnc2c(-c3ccc(C(=O)O)cc3)cn(C(c3ccccn3)C3CCOCC3)c2c1 (centres unmarked) [P-1036, 4-[6-(3,5-dimethylisoxazol-4-yl)-1-[2-pyridyl(tetrahydropyran-4-yl)methyl]pyrrolo[3,2-b]pyridin-3-yl]benzoic acid] | < 1 | < 1
